Consider 1 molecule from ChEMBL document CHEMBL4196089, “Design, synthesis, biological evaluation and in vivo testing of dual phosphodiesterase 5 (PDE5) and histone deacetylase 6 (HDAC6)-selective inhibitors for the treatment of Alzheimer's disease” (Eur J Med Chem, 2018).

Usually IC50 stands for the concentration needed to halve the response being measured. By inhibition is commonly meant how much of the control response was suppressed. As a reminder, the half-life is the time in which the quantity being followed falls by half.

The target of one series is Histone deacetylase 1 (Homo sapiens, UniProt Q13547). As to the kind of experiment: Inhibition of full length human recombinant C-terminal FLAG/His-tagged HDAC1 expressed in baculovirus infected sf9 cells using fluorogenic HDAC substrate 3 after 30 mins by fluorescence assay.
Another series has as its target Histone deacetylase 2 (Homo sapiens, UniProt Q92769). As to the kind of experiment: Inhibition of full length human recombinant C-terminal His-tagged HDAC2 expressed in baculovirus infected sf9 cells using fluorogenic HDAC substrate 3 after 30 mins by fluorescence assay.
The target of series [1] is Histone deacetylase 3/Nuclear receptor corepressor 2 (HDAC3/NCoR2) (Homo sapiens, UniProt O15379). The series is described as follows: Inhibition of full length human recombinant C-terminal His-tagged HDAC3/N-terminal GST-tagged NCOR2 (95 to 489 residues) expressed in baculovirus infected sf9 cells using fluorogenic HDAC substrate 3 after 30 mins by fluorescence assay.

Series [2] has as its target T1, Protein deacetylase HDAC6 (Homo sapiens, UniProt Q9UBN7).
T1 sequence (Q9UBN7 whole entry): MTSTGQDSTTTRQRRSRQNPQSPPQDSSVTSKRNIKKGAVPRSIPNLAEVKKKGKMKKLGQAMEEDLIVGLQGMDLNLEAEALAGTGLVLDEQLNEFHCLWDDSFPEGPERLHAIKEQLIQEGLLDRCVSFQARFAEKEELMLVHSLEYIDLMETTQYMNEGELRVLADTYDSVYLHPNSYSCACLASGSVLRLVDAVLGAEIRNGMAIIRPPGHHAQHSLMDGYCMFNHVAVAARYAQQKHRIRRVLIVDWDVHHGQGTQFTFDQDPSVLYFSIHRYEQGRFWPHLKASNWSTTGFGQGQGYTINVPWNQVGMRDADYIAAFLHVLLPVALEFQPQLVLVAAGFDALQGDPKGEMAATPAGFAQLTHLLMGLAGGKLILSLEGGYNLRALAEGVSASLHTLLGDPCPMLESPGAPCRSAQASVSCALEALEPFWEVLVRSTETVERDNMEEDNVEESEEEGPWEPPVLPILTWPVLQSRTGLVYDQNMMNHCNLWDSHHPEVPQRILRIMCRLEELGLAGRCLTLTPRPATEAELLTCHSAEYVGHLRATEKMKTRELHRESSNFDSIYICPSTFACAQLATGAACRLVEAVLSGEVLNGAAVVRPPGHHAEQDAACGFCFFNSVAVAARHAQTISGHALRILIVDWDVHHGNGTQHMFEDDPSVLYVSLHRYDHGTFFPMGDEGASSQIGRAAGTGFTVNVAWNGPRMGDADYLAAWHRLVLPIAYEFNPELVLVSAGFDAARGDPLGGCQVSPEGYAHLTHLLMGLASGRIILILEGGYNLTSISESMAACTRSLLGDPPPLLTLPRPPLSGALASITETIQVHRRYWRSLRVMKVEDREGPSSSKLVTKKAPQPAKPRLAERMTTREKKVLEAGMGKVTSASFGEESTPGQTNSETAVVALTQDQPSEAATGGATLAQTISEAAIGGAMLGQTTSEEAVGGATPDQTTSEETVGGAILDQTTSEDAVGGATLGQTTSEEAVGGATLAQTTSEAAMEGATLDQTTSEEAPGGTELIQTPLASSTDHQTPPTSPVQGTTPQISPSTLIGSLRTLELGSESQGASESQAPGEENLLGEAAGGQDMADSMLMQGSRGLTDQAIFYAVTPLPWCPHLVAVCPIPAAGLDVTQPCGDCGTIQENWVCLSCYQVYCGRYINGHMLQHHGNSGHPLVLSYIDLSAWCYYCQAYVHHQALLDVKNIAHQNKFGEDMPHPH
The series is described as follows: Inhibition of full length human recombinant N-terminal GST-tagged HDAC6 expressed in baculovirus infected sf9 cells using fluorogenic HDAC substrate 3 after 30 mins by fluorescence assay.

A short description of series [3]: Cytotoxicity against human THLE2 cells after 72 hrs by vialight cell proliferation assay. The format is cell-based, THLE-2. The settings on record: read-out: LC50.
The nature of series [4]: Selectivity ratio of compound effect for inhibition of HDAC6 in human SH-SY5Y cells assessed as induction of tubulin K-40 acetylation level to compound effect for inhibition of class-1 HDAC in human SH-SY5Y cells assessed as induction of AcH3K9 level. The format is functional.
For series [5], the target named is Protein deacetylase HDAC6 (Mus musculus) (UniProt Q9Z2V5). The series is described as follows: Inhibition of HDAC6 in Tg2576 mouse primary neurons assessed as reduction in human APP protein level at 100 nM treated for 2 days measured at 24 hrs post last dose by Western blot analysis relative to control. Background: A western blot detects proteins with antibodies after separation by electrophoresis.

Series [6] has the same target. As to the kind of experiment: Inhibition of HDAC6 in Tg2576 mouse primary neurons assessed as reduction in phosphorylated tau protein level at 100 nM treated for 2 days measured at 24 hrs post last dose by Western blot analysis relative to control.
Series [7] is described as follows: Cytotoxicity against Tg2576 mouse primary neurons after 72 hrs by ATP luminescence assay. The format is cell-based, Neuron. The settings on record: read-out: LC50.
The target of another series is CYP1A2 (Homo sapiens, UniProt P05177). The series is described as follows: Inhibition of CYP1A2 in human liver microsomes at 10 uM after 10 mins in presence of NADPH by LC-MS/MS analysis relative to control. The format is ADME. On the technique in general: Liver microsomes are a subcellular fraction often used to study metabolism.
The target in the next series is CYP2C9 (Homo sapiens, UniProt P11712). The series is described as follows: Inhibition of CYP2C9 in human liver microsomes at 10 uM after 10 mins in presence of NADPH by LC-MS/MS analysis relative to control. The format is ADME.
The target in another series is CYP2D6 (Homo sapiens, UniProt P10635). The series is described as follows: Inhibition of CYP2D6 in human liver microsomes at 10 uM after 10 mins in presence of NADPH by LC-MS/MS analysis relative to control. Type of series: ADME.
In another series the target is CYP3A4 (Homo sapiens, UniProt P08684). The series is described as follows: Inhibition of CYP3A4 in human liver microsomes at 10 uM after 10 mins in presence of NADPH by LC-MS/MS analysis relative to control. The format is ADME.
A short description of series [8]: Half life in mouse liver microsomes at 1 uM preincubated for 10 mins followed by NADPH addition measured up to 60 mins by LC-MS/MS analysis. The format is ADME, microsome.
The target of series [9] is High affinity cGMP-specific 3',5'-cyclic phosphodiesterase 9A (Homo sapiens, UniProt O76083). The series is described as follows: Inhibition of full length human recombinant N-terminal GST-tagged PDE9A2 expressed in baculovirus infected sf9 cells using cGMP as substrate after 30 mins by fluorescence assay.
Series [10] addresses cGMP-inhibited 3',5'-cyclic phosphodiesterase 3A (Homo sapiens, UniProt Q14432). The series is described as follows: Inhibition of PDE3A (unknown origin) using FAM-cGMP as substrate by fluorescence assay.
For a further series, the target named is Histone deacetylase 8 (Homo sapiens, UniProt Q9BY41). As to the kind of experiment: Inhibition of human HDAC8.
A further series addresses Histone deacetylase 9 (Homo sapiens, UniProt Q9UKV0). As to the kind of experiment: Inhibition of human HDAC9.
A further series deals with Mus musculus. The series is described as follows: In vivo inhibition of PDE5 in mouse assessed as increase in pCREB-Ser133 level in hippocampus at 40 mg/kg, ip measured after 1 hr by Western blot analysis. Also noted: scale not given: the % may be the effect or the level left. The format is functional.
A further series can be described thus: cells. The conditions noted are these: Homo sapiens, SH-SY5Y, 2 h, read-out: FC.

Chain of Protein deacetylase HDAC6 (Mus musculus) (Q9Z2V5 whole entry): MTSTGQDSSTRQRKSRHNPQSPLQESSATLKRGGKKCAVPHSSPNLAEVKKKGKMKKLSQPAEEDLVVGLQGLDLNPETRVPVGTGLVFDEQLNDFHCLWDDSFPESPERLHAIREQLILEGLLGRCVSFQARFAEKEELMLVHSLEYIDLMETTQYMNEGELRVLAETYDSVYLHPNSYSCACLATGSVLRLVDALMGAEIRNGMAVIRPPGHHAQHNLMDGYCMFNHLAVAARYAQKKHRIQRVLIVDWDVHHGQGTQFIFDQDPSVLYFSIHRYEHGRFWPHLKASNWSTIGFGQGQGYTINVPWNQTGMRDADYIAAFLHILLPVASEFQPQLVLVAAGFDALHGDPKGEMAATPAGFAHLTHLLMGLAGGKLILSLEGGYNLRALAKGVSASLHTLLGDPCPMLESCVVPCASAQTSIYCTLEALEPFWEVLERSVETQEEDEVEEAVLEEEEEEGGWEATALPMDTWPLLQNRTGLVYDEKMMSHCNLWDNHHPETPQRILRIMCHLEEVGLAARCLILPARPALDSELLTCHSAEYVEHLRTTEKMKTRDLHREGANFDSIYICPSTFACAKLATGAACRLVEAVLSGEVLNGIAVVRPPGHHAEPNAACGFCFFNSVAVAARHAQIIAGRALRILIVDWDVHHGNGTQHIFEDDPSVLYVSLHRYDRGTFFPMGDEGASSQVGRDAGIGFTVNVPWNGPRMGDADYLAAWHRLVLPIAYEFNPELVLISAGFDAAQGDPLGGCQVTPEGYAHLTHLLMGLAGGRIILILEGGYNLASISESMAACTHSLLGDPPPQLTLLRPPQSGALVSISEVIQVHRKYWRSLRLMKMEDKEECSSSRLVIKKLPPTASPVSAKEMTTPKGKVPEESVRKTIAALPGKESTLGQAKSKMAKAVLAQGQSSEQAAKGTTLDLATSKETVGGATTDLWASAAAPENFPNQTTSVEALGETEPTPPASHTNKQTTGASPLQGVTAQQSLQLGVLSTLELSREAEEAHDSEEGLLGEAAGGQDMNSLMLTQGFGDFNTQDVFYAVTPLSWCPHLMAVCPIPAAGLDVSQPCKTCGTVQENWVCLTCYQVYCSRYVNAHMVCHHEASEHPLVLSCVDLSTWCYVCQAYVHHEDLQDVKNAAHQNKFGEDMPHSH
Chain of Histone deacetylase 9 (Q9UKV0 whole entry): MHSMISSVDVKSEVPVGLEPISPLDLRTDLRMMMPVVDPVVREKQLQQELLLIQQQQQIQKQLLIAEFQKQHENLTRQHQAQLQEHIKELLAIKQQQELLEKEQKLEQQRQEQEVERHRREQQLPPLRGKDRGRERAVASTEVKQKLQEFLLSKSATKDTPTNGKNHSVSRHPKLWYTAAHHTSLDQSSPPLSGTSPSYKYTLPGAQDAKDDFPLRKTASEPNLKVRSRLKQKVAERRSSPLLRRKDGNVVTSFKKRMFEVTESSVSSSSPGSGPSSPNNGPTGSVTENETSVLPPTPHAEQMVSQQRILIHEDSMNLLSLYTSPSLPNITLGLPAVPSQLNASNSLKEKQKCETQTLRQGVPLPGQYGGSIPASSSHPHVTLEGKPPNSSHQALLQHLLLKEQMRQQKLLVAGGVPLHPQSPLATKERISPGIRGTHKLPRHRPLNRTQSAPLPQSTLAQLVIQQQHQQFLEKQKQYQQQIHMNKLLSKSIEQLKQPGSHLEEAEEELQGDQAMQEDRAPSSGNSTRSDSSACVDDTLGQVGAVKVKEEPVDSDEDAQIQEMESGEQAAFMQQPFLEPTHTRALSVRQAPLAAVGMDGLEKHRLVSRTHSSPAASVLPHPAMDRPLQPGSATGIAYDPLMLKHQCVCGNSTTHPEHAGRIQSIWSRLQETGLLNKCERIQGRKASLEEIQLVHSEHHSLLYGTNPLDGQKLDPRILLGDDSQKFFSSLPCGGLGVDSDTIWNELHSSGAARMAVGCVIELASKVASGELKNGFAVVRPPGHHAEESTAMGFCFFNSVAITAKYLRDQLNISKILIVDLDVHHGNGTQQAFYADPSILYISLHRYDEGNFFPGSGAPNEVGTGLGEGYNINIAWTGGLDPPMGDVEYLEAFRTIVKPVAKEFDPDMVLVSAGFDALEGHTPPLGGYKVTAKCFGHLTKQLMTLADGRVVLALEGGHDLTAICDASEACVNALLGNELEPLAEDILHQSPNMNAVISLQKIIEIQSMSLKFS
Chain of Histone deacetylase 1 (Q13547 whole entry): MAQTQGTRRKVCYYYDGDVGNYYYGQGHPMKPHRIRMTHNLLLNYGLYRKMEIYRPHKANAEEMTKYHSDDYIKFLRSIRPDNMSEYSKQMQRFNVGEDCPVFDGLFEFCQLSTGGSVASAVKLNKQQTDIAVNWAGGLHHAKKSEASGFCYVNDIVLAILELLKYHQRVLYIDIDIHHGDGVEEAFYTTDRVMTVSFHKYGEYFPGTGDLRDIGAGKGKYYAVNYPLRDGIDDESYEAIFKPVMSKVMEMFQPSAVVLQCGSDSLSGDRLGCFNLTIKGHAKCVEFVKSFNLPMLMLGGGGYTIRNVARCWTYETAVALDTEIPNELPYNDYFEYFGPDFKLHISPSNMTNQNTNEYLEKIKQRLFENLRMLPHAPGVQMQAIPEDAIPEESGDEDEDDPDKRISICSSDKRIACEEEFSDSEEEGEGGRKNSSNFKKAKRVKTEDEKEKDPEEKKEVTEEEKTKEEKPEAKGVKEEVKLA
Chain of CYP2C9 (P11712 whole entry): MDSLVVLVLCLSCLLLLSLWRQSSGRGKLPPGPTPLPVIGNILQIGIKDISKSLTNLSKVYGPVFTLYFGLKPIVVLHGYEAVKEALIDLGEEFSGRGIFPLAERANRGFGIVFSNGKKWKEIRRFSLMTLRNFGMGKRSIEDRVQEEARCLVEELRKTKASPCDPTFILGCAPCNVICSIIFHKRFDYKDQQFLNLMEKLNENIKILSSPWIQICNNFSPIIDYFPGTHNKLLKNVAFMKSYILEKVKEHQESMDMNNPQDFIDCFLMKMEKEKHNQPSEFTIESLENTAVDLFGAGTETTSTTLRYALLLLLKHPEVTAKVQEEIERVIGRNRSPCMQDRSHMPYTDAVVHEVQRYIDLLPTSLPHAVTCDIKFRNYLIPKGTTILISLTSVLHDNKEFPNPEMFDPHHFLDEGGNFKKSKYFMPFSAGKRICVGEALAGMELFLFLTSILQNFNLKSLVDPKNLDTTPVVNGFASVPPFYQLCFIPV
Chain of Histone deacetylase 2 (Q92769 whole entry, the tested form may be a part): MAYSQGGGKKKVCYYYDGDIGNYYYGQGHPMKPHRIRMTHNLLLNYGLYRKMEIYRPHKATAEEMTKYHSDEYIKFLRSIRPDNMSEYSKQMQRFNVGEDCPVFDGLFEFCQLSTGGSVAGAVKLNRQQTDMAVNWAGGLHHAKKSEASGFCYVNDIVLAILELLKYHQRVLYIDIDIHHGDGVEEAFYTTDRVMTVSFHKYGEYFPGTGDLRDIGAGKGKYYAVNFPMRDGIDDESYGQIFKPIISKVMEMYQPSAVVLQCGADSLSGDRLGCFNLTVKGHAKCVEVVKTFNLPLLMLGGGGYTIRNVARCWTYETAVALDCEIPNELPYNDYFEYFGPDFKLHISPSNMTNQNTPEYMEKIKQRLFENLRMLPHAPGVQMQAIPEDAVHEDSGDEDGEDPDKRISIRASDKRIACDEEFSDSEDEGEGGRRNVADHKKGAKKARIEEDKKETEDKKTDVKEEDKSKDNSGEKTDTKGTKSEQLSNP
Chain of CYP1A2 (P05177 whole entry): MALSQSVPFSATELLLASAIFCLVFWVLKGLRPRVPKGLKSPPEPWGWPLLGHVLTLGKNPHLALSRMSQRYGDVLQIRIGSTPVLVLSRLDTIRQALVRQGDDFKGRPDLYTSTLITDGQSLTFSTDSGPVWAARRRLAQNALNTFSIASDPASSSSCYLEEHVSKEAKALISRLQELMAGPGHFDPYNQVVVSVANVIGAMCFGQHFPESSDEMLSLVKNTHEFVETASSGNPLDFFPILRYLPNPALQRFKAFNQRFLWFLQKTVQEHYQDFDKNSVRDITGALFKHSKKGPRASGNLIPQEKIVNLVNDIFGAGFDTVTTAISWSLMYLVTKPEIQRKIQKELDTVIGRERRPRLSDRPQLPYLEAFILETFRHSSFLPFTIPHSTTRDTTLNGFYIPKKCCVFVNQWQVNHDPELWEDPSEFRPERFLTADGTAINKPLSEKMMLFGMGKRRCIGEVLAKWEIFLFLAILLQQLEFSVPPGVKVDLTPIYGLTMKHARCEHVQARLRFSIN
Chain of Histone deacetylase 8 (Q9BY41 whole entry): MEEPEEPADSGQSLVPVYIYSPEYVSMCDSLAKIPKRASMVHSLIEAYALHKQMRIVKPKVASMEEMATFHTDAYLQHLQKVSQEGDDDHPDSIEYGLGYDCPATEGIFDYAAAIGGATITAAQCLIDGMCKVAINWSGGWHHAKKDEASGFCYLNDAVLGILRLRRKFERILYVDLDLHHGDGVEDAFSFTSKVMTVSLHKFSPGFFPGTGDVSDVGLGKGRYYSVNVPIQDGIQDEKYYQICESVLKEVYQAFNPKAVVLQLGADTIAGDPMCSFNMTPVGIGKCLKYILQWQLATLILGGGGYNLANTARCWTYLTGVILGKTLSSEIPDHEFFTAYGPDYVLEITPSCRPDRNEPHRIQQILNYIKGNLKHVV
Chain of CYP3A4 (P08684 whole entry): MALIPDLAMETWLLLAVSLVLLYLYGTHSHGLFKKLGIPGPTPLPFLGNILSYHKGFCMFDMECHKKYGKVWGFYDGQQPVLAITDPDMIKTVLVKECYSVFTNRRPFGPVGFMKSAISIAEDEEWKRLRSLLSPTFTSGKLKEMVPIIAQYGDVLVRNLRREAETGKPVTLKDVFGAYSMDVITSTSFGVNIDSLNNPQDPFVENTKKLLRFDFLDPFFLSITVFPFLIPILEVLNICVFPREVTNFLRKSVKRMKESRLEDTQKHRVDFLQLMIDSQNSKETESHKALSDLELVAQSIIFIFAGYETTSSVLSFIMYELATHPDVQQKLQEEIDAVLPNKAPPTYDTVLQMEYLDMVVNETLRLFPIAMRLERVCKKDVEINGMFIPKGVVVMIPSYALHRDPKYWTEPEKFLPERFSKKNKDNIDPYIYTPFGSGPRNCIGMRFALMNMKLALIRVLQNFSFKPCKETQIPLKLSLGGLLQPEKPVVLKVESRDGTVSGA

`CCCc1nn(C)c2c(=O)[nH]c(-c3cc(Cc4ccc(C(=O)NO)s4)ccc3OCC)nc12`: the IC50 on Histone deacetylase 1 is 0.345 µM; at Histone deacetylase 2, 3.72 µM; in [1], 2.09 µM; in [2] it was 0.015 µM; in series [9], greater than 10 µM; in series [10] it was 3.2 µM. Also, the IC50 against Histone deacetylase 8 and against Histone deacetylase 9 was greater than 10 µM throughout. Also, the CC50 at 72 h came out at 6.81 µM in series [3] and 46.3 µM in [7]. For the same molecule, the Selectivity ratio in series [4] is greater than 5. Besides, the inhibition in [5] came to 55%; in [6], 30%. Further, the inhibition at 10 min, 10 µM on CYP1A2 was less than 50%; at CYP2C9, less than 50%; at CYP2D6, less than 50%; on CYP3A4 it was 23.4%. Besides, the half-life at 1 µM in series [8] was 5.2 min. Further, the Activity in the series on Mus musculus turned out to be 48%. Moreover, in the series “cells”, the fold induction at 0.5 µM was 8.2.
